Patent publication US20220096535A1, “COMBINATION DRUG THERAPIES OF PDE-5 INHIBITORS AND INHALED NITRIC OXIDE” (BELLEROPHON THERAPEUTICS, priority 2019, published 2022)

Assay: Drug-drug interaction study between pulsed, inhaled nitric oxide and sildenafil in healthy volunteers
Experimental: Inhaled Nitric Oxide (iNO) has been approved for use in infants with hypoxic respiratory failure. Nitric oxide is a selective pulmonary vasodilator, whose action is mediated by the cyclic guanosine monophosphate (cGMP) pathway. […] The objective of this study is to investigate the potential pharmacodynamic interaction between pulsed iNO and sildenafil in healthy volunteers.
Five healthy volunteers received sildenafil for 24 hours prior to the addition of iNO. Changes in pharmacodynamics parameters such as Heart Rate, Blood Pressure, and Oxygen Saturation after dosing with both drugs was assessed for 27 hours and hourly for 4 hours post iNO discontinuation.
FIG. 7 illustrates the protocol design for this study. Briefly, on Day 1, subjects were dosed with sildenafil alone. One dose of 20 mg sildenafil was administered every […] on day 1 for a total of 3 doses on day 1. Vital signs (heart rate, blood pressure, and oxygen saturation) were assessed beginning 1 hour prior to administration of sildenafil and every 30 minutes until 2.5 hours after each dose of sildenafil. Adverse events were also monitored. On days 2-3, the sildenafil regimen was continued as administered on day 1, and supplemented with 27.5 hours of pulsed iNO therapy at 75 mcg/kg individual body weight (IBW)/hr (INOPulse). Vital signs were assessed beginning 1 hour prior to administration of iNO and every 30 minutes until 2.5 hours after each dose of sildenafil. Upon discontinuation of iNO, vital signs were measured hourly for a 4-hour period, and subjects were monitored for syncope and lightheadedness. Nitric oxide metabolites were measured throughout administration of iNO and for 4 hours post-discontinuation of iNO.

Compound	Synergistic interaction (hypotensive drug-drug interaction) between iNO and sildenafil (even at peak levels of metabolites, all volunteers)	Other adverse events (iNO 75 mcg/kg IBW/hr co-administered with 20 mg sildenafil)	Syncope, lightheadedness, or signs of rebound upon discontinuation of iNO (monitored for 4 hours after iNO discontinuation, sildenafil background)	Systolic and diastolic blood pressures during co-administration of iNO, compared to first 3 doses of sildenafil alone (pulsed iNO 75 mcg/kg IBW/hr for 27.5 hours with 20 mg sildenafil, sildenafil doses 4 and 5, and peak nitric oxide metabolites (doses 6 and 7))	Blood pressure after dosing with sildenafil alone (5 healthy volunteers, 20 mg sildenafil every 6 hours, all 3 doses on day 1, within 2.5 hours after dosing)
[N]=O [iNO, nitric oxide]	No synergistic interaction	no other adverse events were identified	no instances of syncope, lightheadedness, or signs of possible rebound	no further decline	
CCCc1nn(C)c2c(=O)[nH]c(-c3cc(S(=O)(=O)N4CCN(C)CC4)ccc3OCC)nc12 [sildenafil]					drop in blood pressure
